Several values for one entry are separate records, joined by “and”; a condition that tells them apart may be missing. Equal values may be shown once. Toxic doses and inconclusive results are not listed.
Tested on: L1210 leukemia ip in BDF1 mice, survival T/C
Test: NCI In Vivo Anticancer Drug Screen. Data for tumor model L1210 Leukemia (intraperitoneal) in B6D2F1 (BDF1) mice
Settings: higher = longer survival
How it was run: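 Survival endpoint. Drug-treated group vs vehicle group, expressed as T divided by C. Tumor passaged by transplantation.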

[1] = endpoint: mean survival time, dose: 100.0 mg/kg/injection, schedule: Q01DX009 (ip), vehicle: saline with Tween-80
[2] = endpoint: mean survival time, dose: 100.0 mg/kg/injection, schedule: Q04DX003 (ip), vehicle: saline with Tween-80
[3] = endpoint: mean survival time, dose: 200.0 mg/kg/injection, schedule: Q01DX009 (ip), vehicle: saline with Tween-80
[4] = endpoint: mean survival time, dose: 200.0 mg/kg/injection, schedule: Q04DX003 (ip), vehicle: saline with Tween-80
[5] = endpoint: mean survival time, dose: 400.0 mg/kg/injection, schedule: Q01DX009 (ip), vehicle: saline with Tween-80
[6] = endpoint: mean survival time, dose: 400.0 mg/kg/injection, schedule: Q04DX003 (ip), vehicle: saline with Tween-80
[7] = endpoint: mean survival time, dose: 100.0 mg/kg/injection, schedule: Q04DX003 (ip), vehicle: Klucel (hydroxypropylcellulose) (HPC)
[8] = endpoint: mean survival time, dose: 200.0 mg/kg/injection, schedule: Q04DX003 (ip), vehicle: Klucel (hydroxypropylcellulose) (HPC)
[9] = endpoint: mean survival time, dose: 400.0 mg/kg/injection, schedule: Q04DX003 (ip), vehicle: Klucel (hydroxypropylcellulose) (HPC)
[10] = endpoint: mean survival time, dose: 100.0 mg/kg/injection, schedule: Q01DX001 (ip), vehicle: saline
[11] = endpoint: mean survival time, dose: 200.0 mg/kg/injection, schedule: Q01DX001 (ip), vehicle: saline
[12] = endpoint: mean survival time, dose: 200.0 mg/kg/injection, schedule: Q04DX003 (ip), vehicle: saline
[13] = endpoint: mean survival time, dose: 400.0 mg/kg/injection, schedule: Q01DX001 (ip), vehicle: saline
[14] = endpoint: mean survival time, dose: 400.0 mg/kg/injection, schedule: Q04DX003 (ip), vehicle: saline

Structure (SMILES): CC(N)(CCCC(=O)O)C(=O)O (stereo not drawn)
- T/C (endpoint: mean survival time, dose: 176.0 mg/kg/injection, schedule: Q01DX001 (ip), vehicle: carboxymethylcellulose (CMC)): 95 % of control
- T/C (endpoint: mean survival time, dose: 264.0 mg/kg/injection, schedule: Q01DX001 (ip), vehicle: carboxymethylcellulose (CMC)): 100 % of control
- T/C (endpoint: mean survival time, dose: 400.0 mg/kg/injection, schedule: Q01DX001 (ip), vehicle: carboxymethylcellulose (CMC)): 95 % of control
- T/C (endpoint: mean survival time, dose: 600.0 mg/kg/injection, schedule: Q01DX001 (ip), vehicle: carboxymethylcellulose (CMC)): 98 % of control

Structure (SMILES): CCNC(=O)NC(CSCSC)C(=O)OC (stereo not drawn)
- T/C [1]: 98 % of control
- T/C [2]: 104 % of control
- T/C [3]: 105 % of control
- T/C [4]: 105 % of control
- T/C [5]: 96 % of control
- T/C [6]: 102 % of control

Structure (SMILES): CC(=O)O[C@]1(C(C)=O)CC[C@H]2[C@@H]3C[C@H](C)C4=CC(=O)C=C[C@]4(C)[C@@]3(F)[C@@H](O)C[C@@]21C
- T/C (endpoint: mean survival time, dose: 12.5 mg/kg/injection, schedule: Q01DX010 (sc), vehicle: steriod suspending solution): 96 % of control and 98 % of control
- T/C (endpoint: mean survival time, dose: 25.0 mg/kg/injection, schedule: Q01DX009 (sc), vehicle: steriod suspending solution): 103 % of control and 104 % of control and 111 % of control
- T/C (endpoint: mean survival time, dose: 25.0 mg/kg/injection, schedule: Q01DX010 (sc), vehicle: steriod suspending solution): 98 % of control and 101 % of control
- T/C (endpoint: mean survival time, dose: 50.0 mg/kg/injection, schedule: Q01DX009 (sc), vehicle: steriod suspending solution): 93 % of control and 95 % of control and 111 % of control
- T/C (endpoint: mean survival time, dose: 50.0 mg/kg/injection, schedule: Q01DX010 (sc), vehicle: steriod suspending solution): 95 % of control and 107 % of control
- T/C (endpoint: mean survival time, dose: 100.0 mg/kg/injection, schedule: Q01DX009 (sc), vehicle: steriod suspending solution): 98 % of control (2×) and 111 % of control
- T/C (endpoint: mean survival time, dose: 100.0 mg/kg/injection, schedule: Q01DX010 (sc), vehicle: steriod suspending solution): 98 % of control and 107 % of control
- T/C (endpoint: mean survival time, dose: 200.0 mg/kg/injection, schedule: Q01DX009 (sc), vehicle: steriod suspending solution): 95 % of control (2×) and 111 % of control
- T/C (endpoint: median survival time, dose: 25.0 mg/kg/injection, schedule: Q01DX009 (sc), vehicle: steriod suspending solution): 106 % of control
- T/C (endpoint: median survival time, dose: 50.0 mg/kg/injection, schedule: Q01DX009 (sc), vehicle: steriod suspending solution): 100 % of control
- T/C (endpoint: median survival time, dose: 100.0 mg/kg/injection, schedule: Q01DX009 (sc), vehicle: steriod suspending solution): 100 % of control
- T/C (endpoint: median survival time, dose: 200.0 mg/kg/injection, schedule: Q01DX009 (sc), vehicle: steriod suspending solution): 100 % of control

Structure (SMILES): COc1cccc(/C=C2\N=C(c3ccccc3)OC2=O)c1
- T/C [1]: 102 % of control
- T/C [2]: 97 % of control
- T/C [3]: 107 % of control
- T/C [4]: 94 % of control
- T/C [5]: 102 % of control and 90 % of control
- T/C [6]: 93 % of control

Structure (SMILES): COc1cc(N(CCl)CCl)ccc1NC(=O)c1ccccc1
- T/C [7]: 111 % of control
- T/C [8]: 105 % of control
- T/C [9]: 111 % of control

Structure (SMILES): NC(N)=N/N=C/c1cccc(O)c1
- T/C (endpoint: mean survival time, dose: 63.0 mg/kg/injection, schedule: Q01DX Z (ip), vehicle: saline): 112 % of control
- T/C (endpoint: mean survival time, dose: 125.0 mg/kg/injection, schedule: Q01DX Z (ip), vehicle: saline): 102 % of control

Structure (SMILES): N#CC(C(=O)c1ccccc1)=C([SH2+])[SH2+].N#CC(C(=O)c1ccccc1)=C([SH2+])[SH2+].[Cu+2].c1ccc([AsH](c2ccccc2)(c2ccccc2)c2ccccc2)cc1
- T/C [10]: 103 % of control
- T/C (endpoint: mean survival time, dose: 100.0 mg/kg/injection, schedule: Q04DX003 (ip), vehicle: saline): 100 % of control
- T/C [11]: 105 % of control
- T/C [12]: 96 % of control
- T/C [13]: 98 % of control
- T/C [14]: 98 % of control

Structure (SMILES): O=NN(CCCl)C(=O)NC1CCC(CCl)CC1 (stereo not drawn)
- T/C (endpoint: mean survival time, dose: 8.0 mg/kg/injection, schedule: Q01DX001 (ip), vehicle: saline with Tween-80): 114 % of control
- T/C (endpoint: mean survival time, dose: 12.0 mg/kg/injection, schedule: Q01DX001 (ip), vehicle: saline with Tween-80): 181 % of control
- T/C (endpoint: mean survival time, dose: 18.0 mg/kg/injection, schedule: Q01DX001 (ip), vehicle: saline with Tween-80): 183 % of control
- T/C (endpoint: mean survival time, dose: 26.0 mg/kg/injection, schedule: Q01DX001 (ip), vehicle: saline with Tween-80): 320 % of control
- T/C (endpoint: mean survival time, dose: 40.0 mg/kg/injection, schedule: Q01DX001 (ip), vehicle: saline with Tween-80): 310 % of control
- T/C (endpoint: mean survival time, dose: 60.0 mg/kg/injection, schedule: Q01DX001 (ip), vehicle: saline with Tween-80): 372 % of control
- T/C (endpoint: mean survival time, dose: 90.0 mg/kg/injection, schedule: Q01DX001 (ip), vehicle: saline with Tween-80): 297 % of control
- T/C (endpoint: mean survival time, dose: 200.0 mg/kg/injection, schedule: Q01DX001 (ip), vehicle: saline with Tween-80): 187 % of control

Structure (SMILES): Cc1ccc(S(=O)(=O)N(CC(=O)O)c2c[nH]c(C(=O)O)c2)cc1
- T/C (endpoint: mean survival time, dose: 100.0 mg/kg/injection, schedule: Q01DX009 (ip), vehicle: acetone): 92 % of control
- T/C (endpoint: mean survival time, dose: 200.0 mg/kg/injection, schedule: Q01DX009 (ip), vehicle: acetone): 95 % of control
- T/C (endpoint: mean survival time, dose: 400.0 mg/kg/injection, schedule: Q01DX009 (ip), vehicle: acetone): 88 % of control

Structure (SMILES): CCCCCCCCCCCC(=O)CC
- T/C (endpoint: mean survival time, dose: 50.0 mg/kg/injection, schedule: Q01DX009 (ip), vehicle: saline with Tween-80): 96 % of control
- T/C [1]: 100 % of control
- T/C [2]: 98 % of control
- T/C [3]: 92 % of control and 93 % of control
- T/C [4]: 103 % of control
- T/C [5]: 94 % of control
- T/C [6]: 98 % of control

Structure (SMILES): CN(CCC#N)C(=O)Nc1ccccc1
- T/C (endpoint: mean survival time, dose: 100.0 mg/kg/injection, schedule: Q01DX Z (ip), vehicle: methylcellulose (MC)): 103 % of control
- T/C (endpoint: mean survival time, dose: 200.0 mg/kg/injection, schedule: Q01DX Z (ip), vehicle: methylcellulose (MC)): 95 % of control

Structure (SMILES): Cc1cc(C)c2ccc(=O)[nH]c2n1
- T/C [10]: 92 % of control
- T/C [11]: 101 % of control
- T/C [13]: 101 % of control

Structure (SMILES): NCCCS
- T/C (endpoint: mean survival time, dose: 75.0 mg/kg/injection, schedule: Q01DX001 (ip), vehicle: saline): 96 % of control
- T/C (endpoint: mean survival time, dose: 150.0 mg/kg/injection, schedule: Q01DX001 (ip), vehicle: saline): 96 % of control

Structure (SMILES): Cc1cc2nc(CCl)[nH]c2cc1C
- T/C (endpoint: mean survival time, dose: 50.0 mg/kg/injection, schedule: Q01DX001 (ip), vehicle: saline): 106 % of control
- T/C [10]: 108 % of control
- T/C [11]: 112 % of control

Structure (SMILES): COc1ccc(CCN=Cc2ccc(Cl)cc2)cc1OC
- T/C (endpoint: mean survival time, dose: 100.0 mg/kg/injection, schedule: Q01DX009 (ip), vehicle: Klucel (hydroxypropylcellulose) (HPC)): 104 % of control
- T/C [7]: 93 % of control
- T/C (endpoint: mean survival time, dose: 200.0 mg/kg/injection, schedule: Q01DX009 (ip), vehicle: Klucel (hydroxypropylcellulose) (HPC)): 95 % of control
- T/C [8]: 96 % of control
- T/C (endpoint: mean survival time, dose: 400.0 mg/kg/injection, schedule: Q01DX009 (ip), vehicle: Klucel (hydroxypropylcellulose) (HPC)): 95 % of control
- T/C [9]: 103 % of control

Structure (SMILES): CCCC(=O)OCC1OC(n2cnc3c(=S)nc[nH]c32)C(OC(=O)CCC)C1OC(=O)CCC (stereo not drawn)
- T/C (endpoint: mean survival time, dose: 3.12 mg/kg/injection, schedule: Q04DX003 (ip), vehicle: saline): 97 % of control
- T/C (endpoint: mean survival time, dose: 6.25 mg/kg/injection, schedule: Q01DX009 (ip), vehicle: saline): 112 % of control
- T/C (endpoint: mean survival time, dose: 6.25 mg/kg/injection, schedule: Q01DX Z (ip), vehicle: other): 117 % of control
- T/C (endpoint: mean survival time, dose: 6.25 mg/kg/injection, schedule: Q04DX003 (ip), vehicle: saline): 113 % of control
- T/C (endpoint: mean survival time, dose: 8.36 mg/kg/injection, schedule: Q01DX009 (ip), vehicle: saline with Tween-80): 122 % of control
- T/C (endpoint: mean survival time, dose: 8.36 mg/kg/injection, schedule: Q04DX003 (ip), vehicle: saline with Tween-80): 107 % of control
- T/C (endpoint: mean survival time, dose: 12.5 mg/kg/injection, schedule: Q01DX009 (ip), vehicle: saline): 122 % of control
- T/C (endpoint: mean survival time, dose: 12.5 mg/kg/injection, schedule: Q04DX003 (ip), vehicle: saline with Tween-80): 114 % of control
- T/C (endpoint: mean survival time, dose: 12.5 mg/kg/injection, schedule: Q04DX003 (ip), vehicle: saline): 118 % of control
- T/C (endpoint: mean survival time, dose: 25.0 mg/kg/injection, schedule: Q01DX Z (ip), vehicle: other): 153 % of control
- T/C (endpoint: mean survival time, dose: 25.0 mg/kg/injection, schedule: Q04DX003 (ip), vehicle: saline): 121 % of control
- T/C (endpoint: mean survival time, dose: 26.0 mg/kg/injection, schedule: Q01DX001 (ip), vehicle: saline): 121 % of control
- T/C (endpoint: mean survival time, dose: 40.0 mg/kg/injection, schedule: Q01DX001 (ip), vehicle: saline): 121 % of control
- T/C (endpoint: mean survival time, dose: 50.0 mg/kg/injection, schedule: Q01DX009 (ip), vehicle: saline): 164 % of control
- T/C (endpoint: mean survival time, dose: 50.0 mg/kg/injection, schedule: Q01DX Z (ip), vehicle: other): 89 % of control
- T/C [12]: 123 % of control
- T/C (endpoint: mean survival time, dose: 300.0 mg/kg/injection, schedule: Q01DX001 (ip), vehicle: saline): 151 % of control
- T/C [13]: 121 % of control
- T/C (endpoint: mean survival time, dose: 400.0 mg/kg/injection, schedule: Q01DX009 (ip), vehicle: saline): 100 % of control
- T/C [14]: 105 % of control
